# From US10760052B2, “Method of inhibiting tau phosphorylation” (priority 2012, dated 2020)
# Where two headings read alike, the source gives them in different places.
# Assays:
# [1] = system: tau protein phosphorylated at S202, T231 and T181; assay: Aβ42-induced tau phosphorylation in rat frontal cortical synaptosomes; format: cell-based; conditions: 1 or 10 nM compound, simultaneously or 10-minute pretreatment; Aβ42 0.1 μM
# Procedure: FIG. 4 in four panels as FIGS. 4A-4D, illustrates that FLNA-binding compounds reduce tau phosphorylation at all three phosphorylation sites. […] The three phosphoepitopes of tau were detected in immunoprecipitates using specific antibodies. […] Immunoprecipitates were determined by Western blotting (FIGS. 4A-4C) and quantified by densitometry (FIG. 4D).
# (§1) FIG. 42, also in two panels, FIGS. 42A and 42B, illustrates that FLNA-binding compounds reduce tau phosphorylation at all three phosphorylation sites using the compounds and concentrations of FIG. 41 using immunoprecipitation and Western blotting. […] The three phosphoepitopes of tau were detected in immunoprecipitates using specific antibodies.
# as §1, with “44,” for “42,”, “FIG. 44A” for “FIGS. 42A”, “FIG. 44B,” for “42B,”, “43” for “41”, “antibodies. Aβ42 strongly promotes tau phosphorylation at all three sites.” for “antibodies.”
# as §1, with “46,” for “42,”, “FIG. 46A” for “FIGS. 42A”, “FIG. 46B,” for “42B,”, “45” for “41”, “antibodies. Aβ42 strongly promotes tau phosphorylation at all three sites.” for “antibodies.”
# The three primary phosphorylation sites on tau protein were examined for their phosphorylation levels compared to total tau protein content. Tau, phosphorylated at these three sites, is a constituent of NFTs. Consistent with effects on FLNA-α7nAChR association, and ERK2 activation, all of the FLNA-binding compounds assayed, with 10 minute pre-incubation, decreased Aβ42-induced phosphorylation of tau at all three sites (FIG. 4).
# α7nAChR-FLNA complex [2] = molecular target: T1, α7nAChR-FLNA complex (Rattus norvegicus, UniProt A0A8I5ZV49); assay: Aβ42-induced α7nAChR-FLNA association in rat frontal cortical synaptosomes (co-immunoprecipitation/Western blot); format: cell-based; conditions: 1 or 10 nM compound, simultaneously or 10 minutes prior to Aβ42 (0.1 μM)
# T1 construct: from tissue; host or cells: rat frontal cortex synaptosomes
# Excerpt: The α7nAChR-FLNA complexes in the solubilized synaptosomes were immunoprecipitated with immobilized anti-FLNA and the α7nAChR and FLNA levels in the anti-FLNA immunoprecipitates determined by Western blotting (FIG. 2A) and quantified by densitometry (FIG. 2B). n=3. […] The letter designation “M” that accompanies many of the “C-series” compounds is omitted from FIG. 2, the remaining figures and most discussions of the figures and compounds hereinafter for ease in expression. Structural formulas of the compounds used in this and the other figures are provided hereinafter. […]
# α7nAChR-FLNA complex [3] = molecular target: T2, α7nAChR-FLNA complex (Homo sapiens, UniProt P36544); format: cell-based
# T2 construct: In postmortem control frontocortical tissue, Aβ42-induced FLNA recruitment to α7nAChRs was mimicked; from tissue; host or cells: postmortem frontal cortex of control subjects
# Procedure: Incubation continued for 1 hour in the dark. […] The reaction was terminated by the addition of 1.5 ml of ice-cold Ca^2+-free K-R, and slices were collected by a brief centrifugation.
# Solubilized immunoprecipitates derived from co-immunoprecipitation assays were separated by either 7.5 or 10% SDS-PAGE and then electrophoretically transferred to nitrocellulose membranes. The membranes were washed with PBS and blocked overnight (about 18 hours) at 4° C. with 10% milk in PBS with 0.1% Tween®-20 (PBST). Following three 5-minute washes with 0.1% PBST, the membranes were incubated at room temperature for 2 hours with antibody of choice at 1:500-1:1,000 dilutions. After three 2-minute washes in 0.1% PBST, membranes were incubated for 1 hour with anti-species IgG-HRP (1:5,000 dilution) and washed with 0.1% PBST three times, 2-minutes each. Immunoreactivity was visualized by reacting with chemiluminescent reagent (Pierce-ENDOGEN) for exactly 5 minutes and immediately exposing to X-ray film. Specific bands were quantified by densitometric scanning (GS-800 calibrated densitometer, Bio-Rad Laboratories).
# mu opiate receptor (MOR) = molecular target: T3, mu opiate receptor (MOR) (Rattus norvegicus, UniProt P33535); format: biochemical; conditions: for MOR agonist activity ([35S]GTPγS binding), compound as agonist / MOR agonist activity (in words): preliminary study; for MOR agonist activity ([35S]GTPγS binding), compound as agonist: average of two runs
# T3 construct: from tissue; host or cells: striatum (membrane preparation)
# [4] = molecular target: VAKGL pentapeptide of filamin A (FLNA) of SEQ ID NO: 1 (Homo sapiens, UniProt P21333); assay: FITC-NLX-based FLNA screening assay (inhibition of FITC-naloxone binding to Bn-VAKGL on streptavidin plates); conditions: for Binding to FLNA (in words): preliminary study; for Percent binding inhibition, preliminary study: 100 nM frozen-stored FITC-NLX, average of two runs; for Percent Binding Inhibition (FITC-NLX binding): 10 nM FITC-NLX
# [5] = 1 μM agent, relative to 0.1 μM Aβ42
# T2 sequence (P36544 23-502, one chain of several): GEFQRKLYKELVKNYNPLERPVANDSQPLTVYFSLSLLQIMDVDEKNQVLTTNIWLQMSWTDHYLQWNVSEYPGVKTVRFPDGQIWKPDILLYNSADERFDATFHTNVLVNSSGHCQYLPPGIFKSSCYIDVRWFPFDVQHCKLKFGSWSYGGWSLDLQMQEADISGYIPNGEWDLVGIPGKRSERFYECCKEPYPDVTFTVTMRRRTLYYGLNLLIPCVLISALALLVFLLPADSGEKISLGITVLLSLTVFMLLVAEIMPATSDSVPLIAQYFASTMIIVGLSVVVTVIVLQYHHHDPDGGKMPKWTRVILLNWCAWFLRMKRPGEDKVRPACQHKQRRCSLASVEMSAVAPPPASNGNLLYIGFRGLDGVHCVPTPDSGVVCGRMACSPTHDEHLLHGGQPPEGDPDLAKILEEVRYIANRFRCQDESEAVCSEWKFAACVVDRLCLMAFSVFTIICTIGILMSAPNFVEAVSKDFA
# T1 sequence (A0A8I5ZV49 entry or part of it, one chain of several): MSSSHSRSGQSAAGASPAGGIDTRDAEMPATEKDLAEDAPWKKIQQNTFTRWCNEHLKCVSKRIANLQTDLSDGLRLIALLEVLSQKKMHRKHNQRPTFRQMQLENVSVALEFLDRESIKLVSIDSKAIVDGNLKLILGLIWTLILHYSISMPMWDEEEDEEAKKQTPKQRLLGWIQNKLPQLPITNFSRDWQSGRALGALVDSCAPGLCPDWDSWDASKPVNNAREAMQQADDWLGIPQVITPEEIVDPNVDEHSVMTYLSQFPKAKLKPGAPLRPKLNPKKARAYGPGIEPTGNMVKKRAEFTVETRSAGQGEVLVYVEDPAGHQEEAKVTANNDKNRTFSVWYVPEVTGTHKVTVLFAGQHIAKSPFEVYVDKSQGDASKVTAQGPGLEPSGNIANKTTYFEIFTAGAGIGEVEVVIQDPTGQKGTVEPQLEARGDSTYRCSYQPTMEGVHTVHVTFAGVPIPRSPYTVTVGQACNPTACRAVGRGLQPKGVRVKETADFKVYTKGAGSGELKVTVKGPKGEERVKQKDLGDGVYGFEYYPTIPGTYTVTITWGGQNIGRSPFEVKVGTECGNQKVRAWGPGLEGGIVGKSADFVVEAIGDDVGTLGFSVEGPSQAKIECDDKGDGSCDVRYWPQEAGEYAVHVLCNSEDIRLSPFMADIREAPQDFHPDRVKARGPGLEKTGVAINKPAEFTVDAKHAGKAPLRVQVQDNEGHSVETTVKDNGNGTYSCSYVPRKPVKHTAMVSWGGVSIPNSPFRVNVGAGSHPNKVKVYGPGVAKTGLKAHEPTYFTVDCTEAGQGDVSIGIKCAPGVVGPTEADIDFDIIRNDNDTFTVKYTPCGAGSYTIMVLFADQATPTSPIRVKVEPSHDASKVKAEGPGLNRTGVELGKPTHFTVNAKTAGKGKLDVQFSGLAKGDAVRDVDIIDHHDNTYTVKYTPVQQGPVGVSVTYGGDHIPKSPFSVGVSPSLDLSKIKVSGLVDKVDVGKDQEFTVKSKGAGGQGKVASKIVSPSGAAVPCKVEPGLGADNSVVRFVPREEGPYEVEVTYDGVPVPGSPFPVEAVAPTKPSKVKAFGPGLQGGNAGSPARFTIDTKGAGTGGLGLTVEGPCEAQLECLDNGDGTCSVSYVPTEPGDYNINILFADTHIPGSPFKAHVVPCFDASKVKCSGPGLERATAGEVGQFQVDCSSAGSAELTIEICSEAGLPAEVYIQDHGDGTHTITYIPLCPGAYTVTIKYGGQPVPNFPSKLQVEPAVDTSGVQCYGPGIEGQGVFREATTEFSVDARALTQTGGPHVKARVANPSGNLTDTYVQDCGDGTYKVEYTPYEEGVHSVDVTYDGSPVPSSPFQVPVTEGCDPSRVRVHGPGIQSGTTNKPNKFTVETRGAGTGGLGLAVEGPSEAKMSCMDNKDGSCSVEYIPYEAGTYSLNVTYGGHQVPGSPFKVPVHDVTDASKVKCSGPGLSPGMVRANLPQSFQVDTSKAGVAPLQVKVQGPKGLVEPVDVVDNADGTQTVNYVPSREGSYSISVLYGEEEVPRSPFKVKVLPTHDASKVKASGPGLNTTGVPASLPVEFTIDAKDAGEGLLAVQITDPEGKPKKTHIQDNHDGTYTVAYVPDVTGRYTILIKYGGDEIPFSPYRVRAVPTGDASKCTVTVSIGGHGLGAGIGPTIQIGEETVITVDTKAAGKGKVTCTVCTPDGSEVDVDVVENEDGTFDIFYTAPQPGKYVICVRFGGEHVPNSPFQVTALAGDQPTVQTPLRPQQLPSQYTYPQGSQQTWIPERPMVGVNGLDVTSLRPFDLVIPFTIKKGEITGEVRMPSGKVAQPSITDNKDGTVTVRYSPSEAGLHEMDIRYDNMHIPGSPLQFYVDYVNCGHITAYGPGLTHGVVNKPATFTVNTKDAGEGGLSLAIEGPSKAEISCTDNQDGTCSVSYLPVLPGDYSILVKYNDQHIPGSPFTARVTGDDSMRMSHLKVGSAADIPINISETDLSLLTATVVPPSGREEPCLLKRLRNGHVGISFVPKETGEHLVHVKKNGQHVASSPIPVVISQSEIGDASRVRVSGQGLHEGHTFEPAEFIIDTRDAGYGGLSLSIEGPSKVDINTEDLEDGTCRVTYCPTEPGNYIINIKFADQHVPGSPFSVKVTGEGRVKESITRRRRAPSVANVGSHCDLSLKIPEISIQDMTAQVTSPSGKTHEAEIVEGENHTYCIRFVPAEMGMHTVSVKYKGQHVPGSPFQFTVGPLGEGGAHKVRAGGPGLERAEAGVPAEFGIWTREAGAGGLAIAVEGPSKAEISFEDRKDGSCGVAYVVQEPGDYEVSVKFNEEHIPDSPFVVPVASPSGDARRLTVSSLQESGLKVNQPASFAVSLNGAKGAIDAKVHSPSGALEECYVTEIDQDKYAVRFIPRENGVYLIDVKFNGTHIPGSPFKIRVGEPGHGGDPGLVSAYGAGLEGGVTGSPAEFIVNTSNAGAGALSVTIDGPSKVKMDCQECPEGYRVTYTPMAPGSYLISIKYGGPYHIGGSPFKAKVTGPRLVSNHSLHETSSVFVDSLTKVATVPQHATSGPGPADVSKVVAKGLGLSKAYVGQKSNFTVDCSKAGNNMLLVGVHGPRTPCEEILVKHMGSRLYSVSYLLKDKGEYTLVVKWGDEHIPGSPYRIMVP
# T3 sequence (P33535 whole entry): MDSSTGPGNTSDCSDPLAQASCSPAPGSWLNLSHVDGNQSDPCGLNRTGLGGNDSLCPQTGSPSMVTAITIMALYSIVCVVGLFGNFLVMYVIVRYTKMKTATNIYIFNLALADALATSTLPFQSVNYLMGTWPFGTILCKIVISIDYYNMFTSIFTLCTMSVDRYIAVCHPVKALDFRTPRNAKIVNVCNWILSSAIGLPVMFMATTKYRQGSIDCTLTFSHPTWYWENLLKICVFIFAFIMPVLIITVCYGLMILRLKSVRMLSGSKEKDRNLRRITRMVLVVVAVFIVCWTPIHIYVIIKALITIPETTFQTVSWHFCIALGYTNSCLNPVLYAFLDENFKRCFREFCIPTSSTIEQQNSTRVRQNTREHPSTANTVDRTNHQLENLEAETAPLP
structure (smiles),measurement,setting,value
O=C1CNC2(CCN(CC3CC3)CC2)N1Cc1ccccc1 [Compound C0124],"Aβ42-induced tau phosphorylation at S202, T231 and T181",[1],reduced this phosphorylation at both concentrations
same,α7nAChR-FLNA association (ratio α7nAChR/FLNA),α7nAChR-FLNA complex [2],reduce α7nAChR-FLNA association
O=C(Nc1ccccc1)N1CCC2(CC1)NCC(=O)N2Cc1ccccc1 [Compound C],"Aβ42-induced tau phosphorylation at S202, T231 and T181",[1],did not provide a statistically significant result at two phosphorylation positions when simultaneously administered
same,α7nAChR-FLNA association (ratio α7nAChR/FLNA),α7nAChR-FLNA complex [2],statistically different from Aβ42 alone
Cc1ccc(S(=O)(=O)N2CCOC23CCN(CC2CC2)CC3)cc1 [Compound C0134],α7nAChR-FLNA association (ratio α7nAChR/FLNA),α7nAChR-FLNA complex [2],statistically different from Aβ42 alone
O=C(N[C@H]1CN2CCC1CC2)c1ccc(Cl)cc1 [PNU282987],"Aβ42 effect, %",α7nAChR-FLNA complex [3],8.9 ± 3.9%
same,FLNA/α7nAChR ratio,α7nAChR-FLNA complex [3],0.12 ± 0.02
same,"FLNA/α7nAChR ratio (stimulation vs vehicle, %)",α7nAChR-FLNA complex [3],(87.1 ± 37.9) %
O=S(=O)(c1ccc(OC(F)(F)F)cc1)N1CCOC12CCN(CC1CC1)CC2 [Compound 4],"MOR agonist activity ([35S]GTPγS binding), compound as agonist",mu opiate receptor (MOR); 0.1 μM,133.9%
same,"MOR agonist activity ([35S]GTPγS binding), compound as agonist",mu opiate receptor (MOR); 1 μM + βNFA,49.5%
same,"MOR agonist activity ([35S]GTPγS binding), compound as agonist",mu opiate receptor (MOR); 1 μM,165.2%
same,MOR agonist activity (in words),mu opiate receptor (MOR),not as potent a MOR agonist
same,Binding to FLNA (in words),[4],bound well to FLNA
"CC12CC3CC(C)(C1)CC(N)(C3)C2 [Memantine, memantine]","FLNA/α7nAChR ratio (stimulation vs vehicle, %)",α7nAChR-FLNA complex [3]; 1 μM agent,(225.9 ± 38.5) %
same,FLNA/α7nAChR ratio,"α7nAChR-FLNA complex [3]; 1 μM agent, postmortem control frontocortical tissue",0.21 ± 0.03
same,"Aβ42 effect, %",α7nAChR-FLNA complex [3]; [5],23.0 ± 3.9%
same,FLNA recruitment to α7nAChRs (in words),α7nAChR-FLNA complex [3]; postmortem control frontocortical tissue,elicited the recruitment of FLNA to α7nAChRs
"C=CCN1CC[C@]23c4c5ccc(O)c4O[C@H]2C(=O)CC[C@]3(O)[C@H]1C5 [(+) NLX, (+)naloxone]","Percent binding inhibition, preliminary study",[4]; 0.1 nM compound,22.7%
same,"Percent binding inhibition, preliminary study",[4]; 1 nM compound,22.8%
same,"Percent binding inhibition, preliminary study",[4]; 10 nM compound,23.1%
same,"Percent binding inhibition, preliminary study",[4]; 100 nM compound,22.8%
same,"Percent binding inhibition, preliminary study",[4]; 1 μM compound,39.8%
COc1c2c(cc3c1C(CC(O)Cc1ccccc1C)N(C)CC3)OCO2 (centres unmarked) [Compound B0054],% DAMGO (0.1 μM),mu opiate receptor (MOR),93.4%
same,% DAMGO (1 μM),mu opiate receptor (MOR),85.3%
same,% DAMGO + BFNA,mu opiate receptor (MOR),668.7%
same,Concentration of FLNA-Binding Compound as Agonist 0.1 μM,"mu opiate receptor (MOR); [35S]GTPγS binding to Gαo in striatal membranes, compound 0.1 μM",157.8%
same,Concentration of FLNA-Binding Compound as Agonist 1 μM,"mu opiate receptor (MOR); [35S]GTPγS binding to Gαo in striatal membranes, compound 1 μM",186.7%
same,Concentration of FLNA-Binding Compound as Agonist 1 μM + BFNA,"mu opiate receptor (MOR); [35S]GTPγS binding to Gαo in striatal membranes, compound 1 μM plus 1 μM β-funaltrexamine (MOR antagonist)",111.0%
same,Percent Binding Inhibition (FITC-NLX binding),[4]; 0.01 μM FLNA-binding compound,25.6%
same,Percent Binding Inhibition (FITC-NLX binding),[4]; 0.1 μM FLNA-binding compound,32.6%
same,Percent Binding Inhibition (FITC-NLX binding),[4]; 1 μM FLNA-binding compound,43.3%
"COc1ccc2c3c1O[C@H]1C[C@@H](O)C=C[C@@]31CCN(C)C2 [Galantamine, galantamine]","FLNA/α7nAChR ratio (stimulation vs vehicle, %)",α7nAChR-FLNA complex [3]; 1 μM agent,(17.1 ± 14.6) %
same,"Aβ42 effect, %",α7nAChR-FLNA complex [3]; [5],1.7 ± 1.5%
C=CCN1CCC2(CC1)OCCN2S(=O)(=O)c1ccc(C)cc1 [Compound 10],"MOR agonist activity ([35S]GTPγS binding), compound as agonist",mu opiate receptor (MOR); 0.1 μM,163.1%
same,"MOR agonist activity ([35S]GTPγS binding), compound as agonist",mu opiate receptor (MOR); 1 μM + βNFA,60.4%
same,"MOR agonist activity ([35S]GTPγS binding), compound as agonist",mu opiate receptor (MOR); 1 μM,191.8%
same,MOR agonist activity (in words),mu opiate receptor (MOR),MOR agonists
same,Binding to FLNA (in words),[4],bind well to FLNA
